According to ChEMBL document CHEMBL1201862, “PubChem BioAssay data set” (2004):
The source made the active and inactive calls.

Tests used:
[1] = target: T1, RNA-binding protein pos-1 (Caenorhabditis elegans, UniProt G5EF15); assay: inhibitors of POS-1/mex-3 RNA binding, dose response, biochemical, fluorescence polarization (AID 1964);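 further: purified POS-1 fused to maltose binding protein made in E. coli; potency of compounds blocking POS-1 binding to fluorescent RNA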
T1 sequence (G5EF15 whole entry): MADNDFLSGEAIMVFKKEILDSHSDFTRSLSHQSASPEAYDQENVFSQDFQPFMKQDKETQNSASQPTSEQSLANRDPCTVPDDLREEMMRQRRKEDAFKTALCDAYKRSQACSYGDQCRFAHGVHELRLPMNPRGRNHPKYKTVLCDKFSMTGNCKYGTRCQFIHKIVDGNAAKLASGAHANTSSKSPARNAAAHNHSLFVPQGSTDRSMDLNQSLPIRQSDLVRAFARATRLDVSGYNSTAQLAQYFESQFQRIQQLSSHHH

[2] = target: T2, Intestinal-type alkaline phosphatase (Homo sapiens, UniProt P09923); assay: human intestinal alkaline phosphatase activators, dose response, biochemical, luminescence, uHTS hits (AID 463120); format: functional
T2 sequence (P09923 whole entry): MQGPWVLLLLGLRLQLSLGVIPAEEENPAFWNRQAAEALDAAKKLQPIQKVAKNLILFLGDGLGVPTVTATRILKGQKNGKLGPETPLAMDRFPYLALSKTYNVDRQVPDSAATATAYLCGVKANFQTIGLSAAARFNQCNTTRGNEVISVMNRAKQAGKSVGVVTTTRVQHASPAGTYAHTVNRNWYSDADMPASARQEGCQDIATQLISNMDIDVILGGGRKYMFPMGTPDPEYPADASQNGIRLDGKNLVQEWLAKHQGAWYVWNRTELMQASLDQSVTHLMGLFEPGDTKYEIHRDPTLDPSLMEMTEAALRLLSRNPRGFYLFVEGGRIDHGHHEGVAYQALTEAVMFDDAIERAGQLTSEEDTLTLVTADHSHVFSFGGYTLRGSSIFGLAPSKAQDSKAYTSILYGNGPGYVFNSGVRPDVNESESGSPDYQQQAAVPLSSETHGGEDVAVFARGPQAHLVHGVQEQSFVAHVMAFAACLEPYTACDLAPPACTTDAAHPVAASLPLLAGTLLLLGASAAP

[3] = target: T2, Intestinal-type alkaline phosphatase; assay: human IAP activators, dose response, biochemical, luminescent, uHTS hits, set 2 (AID 488817); format: functional;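 further: potency of activators that raise enzyme activity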
[4] = target: T3, Intestinal-type alkaline phosphatase (Mus musculus, UniProt P24822); assay: PubChem AID 488875; format: functional
T3 sequence (P24822 whole entry): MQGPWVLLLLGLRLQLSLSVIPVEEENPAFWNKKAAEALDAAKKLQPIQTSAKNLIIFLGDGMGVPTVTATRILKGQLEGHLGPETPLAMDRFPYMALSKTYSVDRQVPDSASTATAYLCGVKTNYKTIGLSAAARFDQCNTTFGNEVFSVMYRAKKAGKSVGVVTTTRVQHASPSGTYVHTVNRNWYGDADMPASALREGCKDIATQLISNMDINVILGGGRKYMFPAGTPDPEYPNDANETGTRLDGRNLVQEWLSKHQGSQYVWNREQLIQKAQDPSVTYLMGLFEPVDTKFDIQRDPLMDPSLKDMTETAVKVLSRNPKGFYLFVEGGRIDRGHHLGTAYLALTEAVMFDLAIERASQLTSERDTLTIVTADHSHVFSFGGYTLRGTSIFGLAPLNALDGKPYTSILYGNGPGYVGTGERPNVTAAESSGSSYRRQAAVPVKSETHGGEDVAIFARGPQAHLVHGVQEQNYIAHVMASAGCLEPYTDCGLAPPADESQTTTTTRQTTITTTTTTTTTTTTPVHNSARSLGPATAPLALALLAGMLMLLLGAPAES

[5] = target: T4, Zinc finger protein mex-5 (Caenorhabditis elegans, UniProt Q9XUB2); assay: MEX-5/TCR-2 RNA interaction inhibitors, dose response, biochemical, C. elegans, fluorescence polarization (AID 1960)
T4 sequence (Q9XUB2 whole entry): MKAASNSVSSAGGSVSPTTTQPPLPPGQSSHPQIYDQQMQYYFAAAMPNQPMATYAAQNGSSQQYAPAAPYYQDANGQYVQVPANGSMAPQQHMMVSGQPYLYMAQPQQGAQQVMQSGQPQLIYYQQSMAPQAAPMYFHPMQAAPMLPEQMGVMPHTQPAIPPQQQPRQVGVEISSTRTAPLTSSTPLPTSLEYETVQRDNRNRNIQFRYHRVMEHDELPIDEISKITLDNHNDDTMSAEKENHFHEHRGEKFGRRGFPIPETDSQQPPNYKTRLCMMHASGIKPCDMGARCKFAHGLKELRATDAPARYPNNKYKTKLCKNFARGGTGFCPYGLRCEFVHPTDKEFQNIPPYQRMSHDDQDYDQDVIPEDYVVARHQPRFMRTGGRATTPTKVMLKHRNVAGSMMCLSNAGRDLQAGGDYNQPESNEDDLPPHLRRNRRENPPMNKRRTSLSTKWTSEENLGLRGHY

[6] = target: T3, Intestinal-type alkaline phosphatase; assay: PubChem AID 488874; format: functional
[7] = target: T5, Alkaline phosphatase, tissue-nonspecific isozyme (Homo sapiens, UniProt P05186); assay: TNAP enzyme activators, dose response, selectivity assay for human IAP activator project, biochemical, TNAP isozyme, human IAP uHTS hits (AID 488886); format: functional;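 further: potency of compounds raising TNAP activity as a selectivity check on IAP activators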
T5 sequence (P05186 whole entry): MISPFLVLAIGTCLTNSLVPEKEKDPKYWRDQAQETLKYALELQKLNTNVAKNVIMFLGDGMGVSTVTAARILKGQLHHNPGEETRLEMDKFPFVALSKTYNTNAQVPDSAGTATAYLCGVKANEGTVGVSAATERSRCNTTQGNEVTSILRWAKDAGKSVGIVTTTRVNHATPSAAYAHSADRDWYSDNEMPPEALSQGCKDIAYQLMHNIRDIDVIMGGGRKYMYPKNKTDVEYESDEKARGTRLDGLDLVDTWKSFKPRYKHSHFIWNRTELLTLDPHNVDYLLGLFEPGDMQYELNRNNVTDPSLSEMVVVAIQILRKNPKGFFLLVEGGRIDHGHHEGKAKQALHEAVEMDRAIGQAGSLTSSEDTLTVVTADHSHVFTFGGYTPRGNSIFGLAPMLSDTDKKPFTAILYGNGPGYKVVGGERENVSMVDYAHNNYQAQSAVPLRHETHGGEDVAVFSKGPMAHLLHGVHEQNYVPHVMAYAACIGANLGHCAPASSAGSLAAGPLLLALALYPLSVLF

[8] = target: T6, Leucine aminopeptidase (Plasmodium falciparum 3D7, UniProt Q8IL11); assay: P. falciparum M17LAP inhibitors, primary screen, biochemical, fluorogenic H-Leu-NHMec substrate, 1536-well (AID 1619); format: functional
T6 sequence (Q8IL11 whole entry): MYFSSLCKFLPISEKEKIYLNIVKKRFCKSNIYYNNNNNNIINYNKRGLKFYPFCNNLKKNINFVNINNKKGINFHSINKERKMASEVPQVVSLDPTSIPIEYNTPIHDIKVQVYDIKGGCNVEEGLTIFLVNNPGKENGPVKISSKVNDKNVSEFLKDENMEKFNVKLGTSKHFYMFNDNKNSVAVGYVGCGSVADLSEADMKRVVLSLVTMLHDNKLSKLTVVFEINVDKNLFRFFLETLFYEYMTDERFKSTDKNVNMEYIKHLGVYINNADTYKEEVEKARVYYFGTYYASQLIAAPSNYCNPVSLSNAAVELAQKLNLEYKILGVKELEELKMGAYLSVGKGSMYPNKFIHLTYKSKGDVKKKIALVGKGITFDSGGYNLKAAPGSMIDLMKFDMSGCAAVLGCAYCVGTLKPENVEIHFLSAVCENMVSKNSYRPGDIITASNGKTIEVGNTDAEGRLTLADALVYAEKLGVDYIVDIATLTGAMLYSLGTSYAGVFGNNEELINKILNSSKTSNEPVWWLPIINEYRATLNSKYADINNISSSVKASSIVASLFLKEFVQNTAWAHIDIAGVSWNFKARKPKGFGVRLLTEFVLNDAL

[9] = target: Procathepsin L (Homo sapiens, UniProt P07711)
[10] = target: T7, Bcl-2-like protein 10 (Homo sapiens, UniProt Q9HD36); assay: displacers of TR3 peptide from Bcl-B, primary screen, selectivity assay for Bfl-1 inhibitor project, biochemical, fluorescence polarization, FITC-TR3 peptide (AID 748);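 further: fluorescence polarization from a fluorescein-labelled TR3 peptide binding purified Bcl-B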
T7 sequence (Q9HD36 whole entry): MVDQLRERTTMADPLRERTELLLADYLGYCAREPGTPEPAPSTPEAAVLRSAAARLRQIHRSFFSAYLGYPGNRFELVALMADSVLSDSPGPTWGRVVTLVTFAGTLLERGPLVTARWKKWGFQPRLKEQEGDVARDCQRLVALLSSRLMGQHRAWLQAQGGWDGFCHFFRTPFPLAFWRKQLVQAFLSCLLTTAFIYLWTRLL

[11] = target: Large T antigen (Simian virus 40, UniProt P03070); format: functional, Betapolyomavirus macacae;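 further: Confirmatory-stage PubChem screen for compounds that inhibit SV40 T antigen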
Chain of Large T antigen (P03070 whole entry): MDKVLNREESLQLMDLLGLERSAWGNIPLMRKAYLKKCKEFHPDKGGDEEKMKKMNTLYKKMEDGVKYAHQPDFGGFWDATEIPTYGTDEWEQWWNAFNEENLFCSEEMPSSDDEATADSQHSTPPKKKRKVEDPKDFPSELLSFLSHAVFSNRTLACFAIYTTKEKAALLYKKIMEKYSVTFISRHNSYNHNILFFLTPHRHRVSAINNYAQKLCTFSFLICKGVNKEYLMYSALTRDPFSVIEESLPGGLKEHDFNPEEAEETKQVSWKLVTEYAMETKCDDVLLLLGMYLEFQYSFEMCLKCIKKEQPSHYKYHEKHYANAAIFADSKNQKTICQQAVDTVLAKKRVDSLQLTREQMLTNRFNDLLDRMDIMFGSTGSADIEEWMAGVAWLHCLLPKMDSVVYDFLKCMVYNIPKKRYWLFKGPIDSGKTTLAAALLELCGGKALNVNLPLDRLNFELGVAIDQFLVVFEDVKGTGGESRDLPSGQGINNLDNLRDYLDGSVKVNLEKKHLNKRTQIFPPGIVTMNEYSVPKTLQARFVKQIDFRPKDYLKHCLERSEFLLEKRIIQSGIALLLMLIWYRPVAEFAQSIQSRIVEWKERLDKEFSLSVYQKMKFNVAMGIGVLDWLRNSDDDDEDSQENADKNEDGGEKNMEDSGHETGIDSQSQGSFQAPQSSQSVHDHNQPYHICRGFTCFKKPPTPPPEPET

[12] = target: T8, Estrogen receptor beta (Homo sapiens, UniProt Q92731); assay: ERβ–SRC-3 coactivator interaction inhibitors, confirmation, orthogonal assay, biochemical, ELISA, streptavidin-HRP readout (AID 1060)
T8 sequence (Q92731 whole entry): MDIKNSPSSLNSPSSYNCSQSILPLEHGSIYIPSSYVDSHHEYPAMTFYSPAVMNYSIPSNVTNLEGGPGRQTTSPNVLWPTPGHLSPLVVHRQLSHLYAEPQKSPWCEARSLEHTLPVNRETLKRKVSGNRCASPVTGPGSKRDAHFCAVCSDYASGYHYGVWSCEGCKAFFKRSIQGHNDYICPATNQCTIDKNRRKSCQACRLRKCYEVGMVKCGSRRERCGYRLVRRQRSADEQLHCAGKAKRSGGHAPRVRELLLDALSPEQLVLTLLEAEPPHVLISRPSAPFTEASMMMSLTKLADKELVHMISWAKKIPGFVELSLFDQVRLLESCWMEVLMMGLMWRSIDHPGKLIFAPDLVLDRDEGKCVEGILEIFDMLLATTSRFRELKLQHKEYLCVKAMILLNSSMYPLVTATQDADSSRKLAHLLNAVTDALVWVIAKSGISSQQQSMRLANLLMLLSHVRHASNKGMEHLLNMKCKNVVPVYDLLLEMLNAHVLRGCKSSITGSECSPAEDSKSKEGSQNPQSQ

[13] = target: Aspartyl aminopeptidase (Plasmodium falciparum 3D7, UniProt Q8I2J3)
Chain of Aspartyl aminopeptidase (Q8I2J3 whole entry): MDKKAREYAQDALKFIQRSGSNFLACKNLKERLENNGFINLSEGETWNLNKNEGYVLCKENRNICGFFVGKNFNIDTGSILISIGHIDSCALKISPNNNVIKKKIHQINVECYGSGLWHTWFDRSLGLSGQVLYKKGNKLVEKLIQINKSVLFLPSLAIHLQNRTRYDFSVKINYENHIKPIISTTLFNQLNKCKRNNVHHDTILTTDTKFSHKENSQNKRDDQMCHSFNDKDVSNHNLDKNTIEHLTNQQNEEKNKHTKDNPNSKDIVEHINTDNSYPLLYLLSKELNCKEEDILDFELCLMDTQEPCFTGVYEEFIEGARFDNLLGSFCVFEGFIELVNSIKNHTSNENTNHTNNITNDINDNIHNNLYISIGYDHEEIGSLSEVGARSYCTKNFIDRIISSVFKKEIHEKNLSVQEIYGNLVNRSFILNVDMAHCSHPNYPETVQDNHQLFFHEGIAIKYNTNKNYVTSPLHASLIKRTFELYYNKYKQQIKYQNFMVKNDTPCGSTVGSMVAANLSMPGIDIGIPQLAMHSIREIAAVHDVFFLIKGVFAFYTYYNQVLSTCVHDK

[14] = target: T8, Estrogen receptor beta
[15] = target: T9, Eukaryotic translation initiation factor 4H (Homo sapiens, UniProt Q15056); assay: eIF4H inhibition in translation initiation, SAR follow-up (AID 435011); format: functional
[16] = target: T10, Polyadenylate-binding protein 1 (Homo sapiens, UniProt P11940); assay: PABP poly(A) RNA binding inhibitors, primary screen, biochemical, fluorescence polarization, uHTS (AID 2014)
T10 sequence (P11940 whole entry): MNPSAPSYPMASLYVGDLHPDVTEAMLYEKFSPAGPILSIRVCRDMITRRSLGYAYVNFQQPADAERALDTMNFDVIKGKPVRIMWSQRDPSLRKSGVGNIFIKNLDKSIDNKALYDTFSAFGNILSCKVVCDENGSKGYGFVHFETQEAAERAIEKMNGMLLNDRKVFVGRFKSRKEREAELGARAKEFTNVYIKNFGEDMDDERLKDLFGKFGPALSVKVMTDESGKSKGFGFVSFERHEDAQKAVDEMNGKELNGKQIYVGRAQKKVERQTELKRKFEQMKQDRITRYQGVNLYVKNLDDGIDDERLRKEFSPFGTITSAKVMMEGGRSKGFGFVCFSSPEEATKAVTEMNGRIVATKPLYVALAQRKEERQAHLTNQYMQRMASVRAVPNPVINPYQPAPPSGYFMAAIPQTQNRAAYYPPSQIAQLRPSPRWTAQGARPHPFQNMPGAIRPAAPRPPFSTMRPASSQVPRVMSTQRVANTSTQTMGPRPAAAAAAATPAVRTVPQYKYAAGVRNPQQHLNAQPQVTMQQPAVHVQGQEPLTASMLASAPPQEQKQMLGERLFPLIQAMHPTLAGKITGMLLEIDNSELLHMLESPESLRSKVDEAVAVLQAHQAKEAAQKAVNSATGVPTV

[17] = target: T9, Eukaryotic translation initiation factor 4H; assay: human eIF4H binding inhibitors, primary screen, translation initiation inhibitor project, biochemical, uHTS, fluorescence polarization (AID 2012)
[18] = target: T10, Polyadenylate-binding protein 1; assay: PABP inhibition in translation initiation, SAR follow-up (AID 435018); format: functional
[19] = Luminescence Cell-Based Dose Response HTS to Identify Inhibitors of 5'UTR Stem-Loop Driven Prion Protein mRNA Translation in H4 Neuroglioblastoma Cells. [Related pubchem assays: 1827 (Project Summary), 1813 (Primary HTS)]; format: functional
[20] = inhibitors of firefly luciferase expression or activity, dose response, H4 neuroglioma cells, luminescence (AID 1990); format: functional, cell-based
[21] = target: Galanin receptor type 2 (Homo sapiens, UniProt O43603); assay: Dose Response cell-based high-throughput screening assay to identify agonists of galanin receptor 2 (GALR2). [Related pubchem assays: 864 ]; format: functional
Chain of Galanin receptor type 2 (O43603 whole entry): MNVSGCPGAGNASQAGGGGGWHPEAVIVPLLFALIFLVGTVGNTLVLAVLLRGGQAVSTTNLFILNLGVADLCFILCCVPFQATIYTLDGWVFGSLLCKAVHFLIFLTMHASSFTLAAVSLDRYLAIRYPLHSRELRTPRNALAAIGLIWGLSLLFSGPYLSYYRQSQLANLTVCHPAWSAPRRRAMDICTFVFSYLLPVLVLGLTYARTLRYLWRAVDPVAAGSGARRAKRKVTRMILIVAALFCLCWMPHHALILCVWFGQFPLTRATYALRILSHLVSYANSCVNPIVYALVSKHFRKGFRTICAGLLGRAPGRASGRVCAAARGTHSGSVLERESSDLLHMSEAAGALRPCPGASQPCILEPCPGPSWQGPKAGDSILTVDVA

[22] = target: Peroxisome proliferator-activated receptor gamma/Nuclear receptor corepressor 2 (Homo sapiens, UniProt P37231+Q9Y618); format: functional
[23] = target: Photoreceptor-specific nuclear receptor (Homo sapiens, UniProt Q9Y5X4); format: functional;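 further: potency for compounds that break the NR2E3 corepressor complex and count as activators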
Chain of Photoreceptor-specific nuclear receptor (Q9Y5X4 whole entry): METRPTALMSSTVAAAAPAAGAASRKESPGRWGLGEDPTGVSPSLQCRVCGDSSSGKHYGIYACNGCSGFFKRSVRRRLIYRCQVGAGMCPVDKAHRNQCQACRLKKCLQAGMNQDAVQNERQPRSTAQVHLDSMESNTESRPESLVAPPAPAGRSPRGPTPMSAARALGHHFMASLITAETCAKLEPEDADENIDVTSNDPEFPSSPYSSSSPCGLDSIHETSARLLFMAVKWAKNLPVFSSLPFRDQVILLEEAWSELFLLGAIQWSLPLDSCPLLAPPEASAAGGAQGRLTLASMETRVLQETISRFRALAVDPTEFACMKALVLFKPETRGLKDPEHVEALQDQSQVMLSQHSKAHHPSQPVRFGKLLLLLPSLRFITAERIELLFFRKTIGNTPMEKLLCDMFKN

[24] = inhibitors of SNCA 5'UTR-driven reporter translation, confirmation, H4 neuroglioma cells, luminescence (AID 1988); format: functional, cell-based
[25] = target: Melanin-concentrating hormone receptor 1 (Homo sapiens, UniProt Q99705); assay: Fluorescence-based counterscreen for antagonists of the G-protein coupled receptor 7 (GPR7): cell-based high throughput dose response assay to identify antagonists of the melanin-concentrating hormone receptor 1 (MCHR1).; format: functional
[26] = target: T11, Neuropeptides B/W receptor type 1 (Homo sapiens, UniProt P48145); assay: Fluorescence-based dose response cell-based high throughput screening assay to identify antagonists of the G-protein coupled receptor 7 (GPR7). [Related pubchem assays: 1952 (Screening assay (GPR7 antagonists).), 1880 (Summary AID.)]; format: functional
T11 sequence (P48145 whole entry): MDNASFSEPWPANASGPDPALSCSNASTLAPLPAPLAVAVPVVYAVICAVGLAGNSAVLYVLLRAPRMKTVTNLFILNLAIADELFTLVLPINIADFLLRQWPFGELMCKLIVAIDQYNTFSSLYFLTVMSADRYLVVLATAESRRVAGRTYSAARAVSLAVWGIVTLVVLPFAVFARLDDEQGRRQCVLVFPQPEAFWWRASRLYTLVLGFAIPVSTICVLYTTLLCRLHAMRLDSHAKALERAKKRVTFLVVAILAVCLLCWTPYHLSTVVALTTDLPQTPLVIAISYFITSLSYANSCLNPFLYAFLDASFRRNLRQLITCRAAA

[27] = target: Interleukin-8 (Homo sapiens, UniProt P10145); assay: SAR analysis of tumor necrosis factor alpha (TNF-alpha) induced IL-8 secretion in MCF-7/NOD1 cells. [Related pubchem assays (depositor defined):AID1575, AID2250, AID2260]; format: functional, cell-based
[28] = target: Tumor necrosis factor (Homo sapiens, UniProt P01375); assay: TNFa-triggered NF-kB activation inhibitors, SAR follow-up, cell-based, revised (AID 2337); format: functional
Chain of Tumor necrosis factor (P01375 whole entry): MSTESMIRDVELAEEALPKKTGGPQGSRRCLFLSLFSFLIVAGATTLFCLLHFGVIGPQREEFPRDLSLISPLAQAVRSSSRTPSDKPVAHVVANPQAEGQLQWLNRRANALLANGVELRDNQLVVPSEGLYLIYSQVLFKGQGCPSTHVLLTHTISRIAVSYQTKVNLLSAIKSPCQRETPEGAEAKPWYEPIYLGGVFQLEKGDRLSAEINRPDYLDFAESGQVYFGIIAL

[29] = tested on: HEK293; assay: cells; conditions: Homo sapiens;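 further: cells exposed to compound for 14 hours overnight before viability readout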
[30] = tested on: Staphylococcus aureus; assay: Inhibitors of Bacterial Quorum Sensing Structure Activity Relationship (SAR) Analysis: Dose Response Assay. [Related pubchem assays: 700, 527 ]; format: functional, organism-based
[31] = target: Protein Rev (Human immunodeficiency virus type 1 group M subtype B (isolate WMJ22)(HIV-1), UniProt P05866); assay: HIV-1 Rev-RRE RNA binding disruptors, dose response, biochemical, protein-RNA interaction (AID 842); set-up: species or system Human immunodeficiency virus 1
Chain of Protein Rev (Human immunodeficiency virus type 1 group M subtype B (isolate WMJ22)(HIV-1), UniProt P05866) (P05866 whole entry): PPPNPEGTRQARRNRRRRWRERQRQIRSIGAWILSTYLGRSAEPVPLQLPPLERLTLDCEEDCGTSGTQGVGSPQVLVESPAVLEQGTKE

[32] = Vero cell cytotoxicity, dose response, cytotoxicity control for Vif-APOBEC3G degradation inhibitor project, Vero cells (AID 1117358); format: functional; conditions: Human immunodeficiency virus 1, Vero
[33] = target: Female germline-specific tumor suppressor gld-1 (Caenorhabditis elegans, UniProt Q17339); assay: inhibitors of GLD-1 binding to TGE RNA, dose response, biochemical, fluorescence polarization, C. elegans (AID 2802);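 further: fluorescence polarization of labeled TGE RNA bound by purified gld-1 protein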
[34] = target: Protein Rev (Human immunodeficiency virus type 1 group M subtype B (isolate HXB2)(HIV-1), UniProt P04618); assay: inhibitors of Rev binding to RRE RNA, dose response, biochemical, fluorescence polarization, HIV-1 (AID 434976); set-up: species or system Human immunodeficiency virus 1

In the case of O=C(NNC(=S)NC(=O)c1ccccc1[N+](=O)[O-])c1ccccc1O, the EC50 [1] is reported as 134 µM (active), the EC50 [2] is reported as 9.16 µM (active) and the EC50 [3] is reported as 9.62 µM (active). For the same compound, the EC50 [4] was > 100 µM (inactive), the EC50 [5] was 32.2 µM (active) and the IC50 [6] was > 100 µM (inactive). For the same compound, the EC50 [7] was 11.2 µM (active).

In the case of O=C(CSc1nc(O)c2ccccc2n1)c1ccc(O)c(O)c1, the IC50 [8] is reported as 13 µM (active), the IC50 [9] is reported as > 59.6 µM (not active) and the IC50 [10] is reported as 23.4 µM (active). For the same compound, the IC50 [11] was 10.7 µM (active), the IC50 [12] was 0.337 µM (not active) and the IC50 [13] was 1.46 µM (active). The IC50 [14] was 4.62 µM (active).

For Cc1ccc(OC(C)C(=O)Nc2ccc3c(c2)n(C)c(=O)n3C)c(C)c1 (centres undefined), the IC50 [15] was 35 µM (active), the IC50 [16] was 16.2 µM (active) and the IC50 [17] was > 100 µM (inactive). For the same compound, the IC50 [18] was 4.39 µM (active).

For CCOc1ccc(Br)cc1C(=O)Nc1ccc(C(=O)NCC(C)C)cc1, the EC50 [19] was 18.1 µM (active), the EC50 [20] was 21.6 µM (active) and the EC50 [21] was > 55.7 µM (not active). For the same compound, the IC50 [22] was > 39.8 µM (not active), the IC50 [23] was > 39.8 µM (not active) and the EC50 [24] was > 120 µM (not active).

With COC(=O)C(O)(c1ccc(N(C)C(=O)c2ccc(Cl)c(Cl)c2)cc1)C(F)(F)F (centres undefined) the IC50 [25] was 15 µM (not active) and the IC50 [26] was > 14.6 µM (not active).

In the case of Cc1ccc(S(=O)(=O)n2cnc3ccccc32)cc1, the IC50 [27] is reported as > 5 µM (inactive), the IC50 [28] is reported as > 20 µM (inactive) and the IC50 [29] is reported as > 20 µM (inactive).

For O=C(O)c1ccccc1Nc1cccc2c1C(=O)c1ccccc1C2=O, the IC50 [30] was 1.05 µM (active).

In the case of CCN(CC)CCNC1=NCCn2c1cc1cc(OC)ccc12, the IC50 [31] is reported as > 79.4 µM (not active) and the CC50 [32] is reported as > 40 µM (active).

In the case of CC1CN(C2=Nc3cccc4cccc2c34)CC(C)O1 (centres undefined), the IC50 [33] is reported as 9.4 µM (active) and the IC50 [34] is reported as 18.2 µM (not active).
